According to ChEMBL document CHEMBL1201862, “PubChem BioAssay data set” (2004):
Structures can show the parent of a compound that is named as a salt.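 Exposure lasted 48 hours, with cells grown in 96-well plates and compounds tested at five concentrations. GI50 marks 50% less growth.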 Calls of active or inactive are those of the source. No stated cut-off is given here; in the data, active = GI50 up to about 1.1 µM and inactive = higher.

Experiments:
Assay in all cases: NCI anticancer screen, dose series, 48 h
UACC-257 = system: UACC-257
UACC-62 = system: UACC-62
HCC 2998 = system: HCC 2998
MOLT-4 = system: MOLT-4
MDA-N = system: MDA-N
HOP-92 = system: HOP-92
SF-539 = system: SF-539
U-251 = system: U-251
DU-145 = system: DU-145
SK-MEL-28 = system: SK-MEL-28
HL-60 = system: HL-60
UO-31 = system: UO-31
Hs-578T = system: Hs-578T
OVCAR-4 = system: OVCAR-4
SK-MEL-5 = system: SK-MEL-5
NCI-H460 = system: NCI-H460
K562 = system: K562

Row | Structure (SMILES) | GI50 (UACC-257) | GI50 (UACC-62) | GI50 (HCC 2998) | GI50 (MOLT-4) | GI50 (MDA-N) | GI50 (HOP-92) | GI50 (SF-539) | GI50 (U-251) | GI50 (DU-145) | GI50 (SK-MEL-28) | GI50 (HL-60) | GI50 (UO-31) | GI50 (Hs-578T) | GI50 (OVCAR-4) | GI50 (SK-MEL-5) | GI50 (NCI-H460) | GI50 (K562)
1 | CCOC(=O)c1nnsc1NN | > 100 µM (inactive) | > 100 µM (inactive) | > 100 µM (inactive) | 34 µM (inactive) | 72.6 µM (inactive) | > 100 µM (inactive) | > 100 µM (inactive) | > 100 µM (inactive) | > 100 µM (inactive) | > 100 µM (inactive) | 10.5 µM (inactive) | > 100 µM (inactive) | > 100 µM (inactive) | > 100 µM (inactive) | > 100 µM (inactive) | 55.8 µM (inactive) | –
2 | COC(=O)C(N)CCCC(N)C(=O)NC(C)C(=O)NC(CCC(=O)NCCNCCNc1c2ccccc2nc2cccc([N+](=O)[O-])c12)C(N)=O (configuration not stated) | 19.5 µM (inactive) | 8.09 µM (inactive) | 8.34 µM (inactive) | 3.5 µM (inactive) | 14.7 µM (inactive) | 4.83 µM (inactive) | 5.19 µM (inactive) | 5.48 µM (inactive) | 6.28 µM (inactive) | 16.6 µM (inactive) | – | 21.9 µM (inactive) | 17.9 µM (inactive) | 2.16 µM (inactive) | 6.92 µM (inactive) | 3.17 µM (inactive) | 3.13 µM (inactive)
3 | COC(=O)[C@H](Cc1ccccc1)NC(=O)OCC1OC(n2cc(C)c(=O)[nH]c2=O)CC1N=[N+]=[N-] (some centres not stated) | > 100 µM (inactive) | > 100 µM (inactive) | > 100 µM (inactive) | > 100 µM (inactive) | > 100 µM (inactive) | > 100 µM (inactive) | – | > 100 µM (inactive) | > 100 µM (inactive) | – | > 100 µM (inactive) | > 100 µM (inactive) | 0.0617 µM (active) | > 100 µM (inactive) | 4.12 µM (inactive) | > 100 µM (inactive) | > 100 µM (inactive)
4 | Oc1ccc(C(O)C2CCCCN2)cc1O (configuration not stated) [RIMITEROL HYDROBROMIDE] | 57.4 µM (inactive) | > 100 µM (inactive) | – | – | > 100 µM (inactive) | > 100 µM (inactive) | > 100 µM (inactive) | > 100 µM (inactive) | > 100 µM (inactive) | > 100 µM (inactive) | – | 32.1 µM (inactive) | > 100 µM (inactive) | > 100 µM (inactive) | > 100 µM (inactive) | > 100 µM (inactive) | > 100 µM (inactive)
5 | C=C1c2[nH]c3ccccc3c2C2C(CC)C1CCN2C (configuration not stated) | 26 µM (inactive) | 48.4 µM (inactive) | 18.5 µM (inactive) | 27.2 µM (inactive) | 72.8 µM (inactive) | 25.6 µM (inactive) | 92 µM (inactive) | 79.3 µM (inactive) | > 100 µM (inactive) | 29.5 µM (inactive) | 49.1 µM (inactive) | > 100 µM (inactive) | 40.9 µM (inactive) | 53.6 µM (inactive) | 61.1 µM (inactive) | 82 µM (inactive) | –
6 | O=C1/C(=C/c2cccc(Br)c2)Cc2ccccc21 | 91 µM (inactive) | 54.3 µM (inactive) | – | 62.7 µM (inactive) | 54 µM (inactive) | 24.8 µM (inactive) | 41.8 µM (inactive) | > 100 µM (inactive) | 53.8 µM (inactive) | > 100 µM (inactive) | 68.7 µM (inactive) | 31.8 µM (inactive) | 29.4 µM (inactive) | 38.9 µM (inactive) | – | 30.8 µM (inactive) | 58.9 µM (inactive)
